From patent US20240058464A1 (Fortis Therapeutics, Inc., priority 2021, published 2024)

Key:
CD46 expression [1] = assay: CD46 expression by RNA-sequencing in paired tumor biopsies before and after therapy; conditions: for CD46 expression diff (post minus pre) / Percent Change in CD46 expression / CD46 expression, Post-Treatment Biopsy: paired biopsies; for CD46 expression, Post-Treatment Biopsy: RNA-seq log2-transformed counts;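 for all read-outs here: FFPE human tumor biopsies, exome-capture RNA-seq, reads aligned to GRCh37, counts normalized for GC content, length and depth, summed per gene, log2-transformed, samples paired before versus after therapy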
CD46 expression [2] = assay: CD46 expression by RNA-sequencing in unpaired pre-treatment and post-treatment tumor biopsies; assay type: in vivo, human; conditions: for CD46 expression Post: post-treatment biopsies
[3] = Biliary Cancer, Post minus Pre, unpaired biopsies, log2-transformed counts
[4] = Biliary Cancer, post- vs pre-treatment unpaired biopsies
[5] = Biliary Cancer, unpaired, RNA-seq log2-transformed normalized counts
[6] = Breast Cancer, Post minus Pre, unpaired biopsies, log2-transformed counts
[7] = Breast Cancer, post- vs pre-treatment unpaired biopsies
[8] = Breast Cancer, unpaired, RNA-seq log2-transformed normalized counts
[9] = Colorectal Cancer, Post minus Pre, unpaired biopsies, log2-transformed counts
[10] = Colorectal Cancer, post- vs pre-treatment unpaired biopsies
[11] = Colorectal Cancer, unpaired, RNA-seq log2-transformed normalized counts
[12] = Esophageal Cancer, Post minus Pre, unpaired biopsies, log2-transformed counts
[13] = Esophageal Cancer, post- vs pre-treatment unpaired biopsies
[14] = Esophageal Cancer, unpaired, RNA-seq log2-transformed normalized counts
[15] = Pancreatic Cancer, post minus pre, unpaired biopsies
[16] = Pancreatic Cancer, post vs pre, unpaired biopsies
[17] = Pancreatic Cancer, log2-transformed RNA-seq counts
[18] = Sarcoma, Post minus Pre, unpaired biopsies, log2-transformed counts
[19] = Sarcoma, post- vs pre-treatment unpaired biopsies
[20] = Sarcoma, unpaired, RNA-seq log2-transformed normalized counts

O=c1[nH]cc(F)c(=O)[nH]1 [fluorouracil]
CD46 expression diff (post minus pre) (CD46 expression [1]; Colorectal Cancer): −0.05 | Percent Change in CD46 expression (CD46 expression [1]; Colorectal Cancer): −0.8% | CD46 expression, Post-Treatment Biopsy (CD46 expression [1]; Colorectal Cancer): 6.27 | CD46 expression diff (post minus pre) (CD46 expression [1]; Esophageal Cancer): −0.31 | Percent Change in CD46 expression (CD46 expression [1]; Esophageal Cancer): −5.2% | CD46 expression, Post-Treatment Biopsy (CD46 expression [1]; Esophageal Cancer): 5.60 | CD46 expression diff (post minus pre) (CD46 expression [1]; Gastric Cancer): −0.09 | Percent Change in CD46 expression (CD46 expression [1]; Gastric Cancer): −1.5% | CD46 expression, Post-Treatment Biopsy (CD46 expression [1]; Gastric Cancer): 5.66 | CD46 expression diff (post minus pre) (CD46 expression [1]; Pancreatic Cancer): 0.09 | Percent Change in CD46 expression (CD46 expression [1]; Pancreatic Cancer): 1.5% | CD46 expression, Post-Treatment Biopsy (CD46 expression [1]; Pancreatic Cancer): 5.92 | subjects whose paired biopsies showed decreased CD46 expression (CD46 expression [1]; esophageal cancer, 10 of 13 subjects, FIG. 4): 77% | CD46 expression diff (CD46 expression [2]; [3]): 0.00 | CD46 expression Percentage change (CD46 expression [2]; [4]): 0.0% | CD46 expression Post (CD46 expression [2]; [5]): 5.92 | CD46 expression diff (CD46 expression [2]; [6]): 0.06 | CD46 expression Percentage change (CD46 expression [2]; [7]): 1.0% | CD46 expression Post (CD46 expression [2]; [8]): 6.18 | CD46 expression diff (CD46 expression [2]; [9]): 0.06 | CD46 expression Percentage change (CD46 expression [2]; [10]): 0.9% | CD46 expression Post (CD46 expression [2]; [11]): 6.44 | CD46 expression diff (CD46 expression [2]; [12]): −0.06 | CD46 expression Percentage change (CD46 expression [2]; [13]): −1.0% | CD46 expression Post (CD46 expression [2]; [14]): 5.83 | CD46 expression diff (CD46 expression [2]; Gastric Cancer, post minus pre, unpaired biopsies): −0.14 | CD46 expression Percentage change (CD46 expression [2]; Gastric Cancer, post vs pre, unpaired biopsies): −2.4% | CD46 expression Post (CD46 expression [2]; Gastric Cancer, log2-transformed RNA-seq counts): 5.65 | CD46 expression diff (CD46 expression [2]; Head and Neck Squamous Cell Carcinoma, Post minus Pre, unpaired biopsies, log2-transformed counts): 0.03 | CD46 expression Percentage change (CD46 expression [2]; Head and Neck Squamous Cell Carcinoma, post- vs pre-treatment unpaired biopsies): 0.6% | CD46 expression Post (CD46 expression [2]; Head and Neck Squamous Cell Carcinoma, unpaired, RNA-seq log2-transformed normalized counts): 5.63 | CD46 expression diff (CD46 expression [2]; [15]): −0.15 | CD46 expression Percentage change (CD46 expression [2]; [16]): −2.5% | CD46 expression Post (CD46 expression [2]; [17]): 5.76

C[C@]12CC[C@@H]3c4ccc(O)cc4C[C@@H](CCCCCCCCC[S+]([O-])CCCC(F)(F)C(F)(F)F)[C@H]3[C@@H]1CC[C@@H]2O (some centres unmarked) [fulvestrant]
CD46 expression diff (post minus pre) (CD46 expression [1]; Breast Cancer): −0.13 | Percent Change in CD46 expression (CD46 expression [1]; Breast Cancer): −2.1% | CD46 expression, Post-Treatment Biopsy (CD46 expression [1]; Breast Cancer): 6.44 | CD46 expression diff (CD46 expression [2]; [6]): −0.08 | CD46 expression Percentage change (CD46 expression [2]; [7]): −1.2% | CD46 expression Post (CD46 expression [2]; [8]): 6.41

Nc1ccn([C@@H]2O[C@H](CO)[C@@H](O)C2(F)F)c(=O)n1 [gemcitabine]
CD46 expression diff (post minus pre) (CD46 expression [1]; Biliary Cancer): 0.05 | Percent Change in CD46 expression (CD46 expression [1]; Biliary Cancer): 0.9% | CD46 expression, Post-Treatment Biopsy (CD46 expression [1]; Biliary Cancer): 5.86 | CD46 expression diff (post minus pre) (CD46 expression [1]; Bladder Cancer): −0.05 | Percent Change in CD46 expression (CD46 expression [1]; Bladder Cancer): −0.8% | CD46 expression, Post-Treatment Biopsy (CD46 expression [1]; Bladder Cancer): 6.24 | CD46 expression diff (post minus pre) (CD46 expression [1]; Breast Cancer): 0.09 | Percent Change in CD46 expression (CD46 expression [1]; Breast Cancer): 1.4% | CD46 expression, Post-Treatment Biopsy (CD46 expression [1]; Breast Cancer): 6.22 | CD46 expression diff (post minus pre) (CD46 expression [1]; Ovarian Cancer): 0.30 | Percent Change in CD46 expression (CD46 expression [1]; Ovarian Cancer): 5.3% | CD46 expression, Post-Treatment Biopsy (CD46 expression [1]; Ovarian Cancer): 5.95 | CD46 expression diff (post minus pre) (CD46 expression [1]; Pancreatic Cancer): 0.09 | Percent Change in CD46 expression (CD46 expression [1]; Pancreatic Cancer): 1.5% | CD46 expression, Post-Treatment Biopsy (CD46 expression [1]; Pancreatic Cancer): 5.93 | CD46 expression diff (post minus pre) (CD46 expression [1]; Sarcoma): 0.02 | Percent Change in CD46 expression (CD46 expression [1]; Sarcoma): 0.4% | CD46 expression, Post-Treatment Biopsy (CD46 expression [1]; Sarcoma): 5.13 | CD46 expression diff (CD46 expression [2]; [3]): −0.03 | CD46 expression Percentage change (CD46 expression [2]; [4]): −0.5% | CD46 expression Post (CD46 expression [2]; [5]): 5.80 | CD46 expression diff (CD46 expression [2]; Bladder Cancer, Post minus Pre, unpaired biopsies, log2-transformed counts): −0.03 | CD46 expression Percentage change (CD46 expression [2]; Bladder Cancer, post- vs pre-treatment unpaired biopsies): −0.5% | CD46 expression Post (CD46 expression [2]; Bladder Cancer, unpaired, RNA-seq log2-transformed normalized counts): 6.12 | CD46 expression diff (CD46 expression [2]; [6]): 0.02 | CD46 expression Percentage change (CD46 expression [2]; [7]): 0.3% | CD46 expression Post (CD46 expression [2]; [8]): 6.09 | CD46 expression diff (CD46 expression [2]; Non-Small Cell Lung Cancer, Post minus Pre, unpaired biopsies, log2-transformed counts): 0.10 | CD46 expression Percentage change (CD46 expression [2]; Non-Small Cell Lung Cancer, post- vs pre-treatment unpaired biopsies): 1.7% | CD46 expression Post (CD46 expression [2]; Non-Small Cell Lung Cancer, unpaired, RNA-seq log2-transformed normalized counts): 5.98 | CD46 expression diff (CD46 expression [2]; Ovarian Cancer, Post minus Pre, unpaired biopsies, log2-transformed counts): −0.05 | CD46 expression Percentage change (CD46 expression [2]; Ovarian Cancer, post- vs pre-treatment unpaired biopsies): −0.9% | CD46 expression Post (CD46 expression [2]; Ovarian Cancer, unpaired, RNA-seq log2-transformed normalized counts): 5.72 | CD46 expression diff (CD46 expression [2]; Pancreatic Cancer, Post minus Pre, unpaired biopsies, log2-transformed counts): 0.00 | CD46 expression Percentage change (CD46 expression [2]; Pancreatic Cancer, post- vs pre-treatment unpaired biopsies): 0.1% | CD46 expression Post (CD46 expression [2]; Pancreatic Cancer, unpaired, RNA-seq log2-transformed normalized counts): 5.87 | CD46 expression diff (CD46 expression [2]; [18]): −0.10 | CD46 expression Percentage change (CD46 expression [2]; [19]): −2.0% | CD46 expression Post (CD46 expression [2]; [20]): 5.02

O=P1(NCCCl)OCCCN1CCCl (centres unmarked) [ifosfamide]
CD46 expression diff (post minus pre) (CD46 expression [1]; Sarcoma): 0.32 | Percent Change in CD46 expression (CD46 expression [1]; Sarcoma): 6.7% | CD46 expression, Post-Treatment Biopsy (CD46 expression [1]; Sarcoma): 5.08 | CD46 expression diff (CD46 expression [2]; [18]): 0.17 | CD46 expression Percentage change (CD46 expression [2]; [19]): 3.4% | CD46 expression Post (CD46 expression [2]; [20]): 5.07

CCc1c2c(nc3ccc(OC(=O)N4CCC(N5CCCCC5)CC4)cc13)-c1cc3c(c(=O)n1C2)COC(=O)[C@]3(O)CC [irinotecan]
CD46 expression diff (post minus pre) (CD46 expression [1]; Colorectal Cancer): 0.16 | Percent Change in CD46 expression (CD46 expression [1]; Colorectal Cancer): 2.5% | CD46 expression, Post-Treatment Biopsy (CD46 expression [1]; Colorectal Cancer): 6.48 | CD46 expression diff (post minus pre) (CD46 expression [1]; Pancreatic Cancer): −0.01 | Percent Change in CD46 expression (CD46 expression [1]; Pancreatic Cancer): −0.1% | CD46 expression, Post-Treatment Biopsy (CD46 expression [1]; Pancreatic Cancer): 5.93 | CD46 expression diff (CD46 expression [2]; Biliary Cancer, post minus pre, unpaired biopsies): −0.14 | CD46 expression Percentage change (CD46 expression [2]; Biliary Cancer, post vs pre, unpaired biopsies): −2.3% | CD46 expression Post (CD46 expression [2]; Biliary Cancer, log2-transformed RNA-seq counts): 5.88 | CD46 expression diff (CD46 expression [2]; [9]): 0.16 | CD46 expression Percentage change (CD46 expression [2]; [10]): 2.5% | CD46 expression Post (CD46 expression [2]; [11]): 6.54 | CD46 expression diff (CD46 expression [2]; [15]): −0.14 | CD46 expression Percentage change (CD46 expression [2]; [16]): −2.5% | CD46 expression Post (CD46 expression [2]; [17]): 5.76 | CD46 expression after treatment vs pre-treatment (CD46 expression [2]; colorectal cancer, unpaired biopsies, FIG. 5): significantly higher

N#Cc1ccc(C(c2ccc(C#N)cc2)n2cncn2)cc1 [letrozole]
CD46 expression diff (post minus pre) (CD46 expression [1]; Breast Cancer): −0.04 | Percent Change in CD46 expression (CD46 expression [1]; Breast Cancer): −0.6% | CD46 expression, Post-Treatment Biopsy (CD46 expression [1]; Breast Cancer): 6.41 | CD46 expression diff (CD46 expression [2]; [6]): −0.04 | CD46 expression Percentage change (CD46 expression [2]; [7]): −0.6% | CD46 expression Post (CD46 expression [2]; [8]): 6.39 | CD46 expression diff (CD46 expression [2]; Ovarian Cancer, post minus pre, unpaired biopsies): −0.17 | CD46 expression Percentage change (CD46 expression [2]; Ovarian Cancer, post vs pre, unpaired biopsies): −2.8% | CD46 expression Post (CD46 expression [2]; Ovarian Cancer, log2-transformed RNA-seq counts): 5.74

Nc1nc2c(c(=O)[nH]1)N(C=O)C(CNc1ccc(C(=O)N[C@@H](CCC(=O)O)C(=O)O)cc1)CN2 (some centres unmarked) [leucovorin]
CD46 expression diff (post minus pre) (CD46 expression [1]; Colorectal Cancer): −0.07 | Percent Change in CD46 expression (CD46 expression [1]; Colorectal Cancer): −1.0% | CD46 expression, Post-Treatment Biopsy (CD46 expression [1]; Colorectal Cancer): 6.30 | CD46 expression diff (post minus pre) (CD46 expression [1]; Esophageal Cancer): −0.14 | Percent Change in CD46 expression (CD46 expression [1]; Esophageal Cancer): −2.3% | CD46 expression, Post-Treatment Biopsy (CD46 expression [1]; Esophageal Cancer): 5.74 | CD46 expression diff (post minus pre) (CD46 expression [1]; Pancreatic Cancer): 0.09 | Percent Change in CD46 expression (CD46 expression [1]; Pancreatic Cancer): 1.5% | CD46 expression, Post-Treatment Biopsy (CD46 expression [1]; Pancreatic Cancer): 5.92 | CD46 expression diff (CD46 expression [2]; [3]): 0.00 | CD46 expression Percentage change (CD46 expression [2]; [4]): 0.1% | CD46 expression Post (CD46 expression [2]; [5]): 5.92 | CD46 expression diff (CD46 expression [2]; [9]): 0.08 | CD46 expression Percentage change (CD46 expression [2]; [10]): 1.2% | CD46 expression Post (CD46 expression [2]; [11]): 6.46 | CD46 expression diff (CD46 expression [2]; [12]): −0.05 | CD46 expression Percentage change (CD46 expression [2]; [13]): −0.9% | CD46 expression Post (CD46 expression [2]; [14]): 5.84 | CD46 expression diff (CD46 expression [2]; Gastric Cancer, Post minus Pre, unpaired biopsies, log2-transformed counts): −0.11 | CD46 expression Percentage change (CD46 expression [2]; Gastric Cancer, post- vs pre-treatment unpaired biopsies): −1.8% | CD46 expression Post (CD46 expression [2]; Gastric Cancer, unpaired, RNA-seq log2-transformed normalized counts): 5.68 | CD46 expression diff (CD46 expression [2]; [15]): −0.15 | CD46 expression Percentage change (CD46 expression [2]; [16]): −2.5% | CD46 expression Post (CD46 expression [2]; [17]): 5.76
